# Measurements reported in US6916921B2, “Steroid compounds, use of these compounds for the preparation of meiosis-regulating medicaments and method for the preparation of these compounds” (Schering AG, priority 2001, dated 2005).
# Key:
# [1] = system: cumulus enclosed mouse oocytes; experiment: Mouse oocyte assay: activation of meiosis in cumulus enclosed oocytes in Hx-medium; type: cell-based; settings: CEO in Hx-medium, 22 hours culture
# Procedure: Testing of Meiosis-Activating Substances in the Mouse Oocyte Assay
# Oocytes were obtained from immature female mice (C57BI/6J×DBA/2J F1-hybrids, Bomholtgaard, Denmark) weighing 13-16 grams, that were kept under controlled lighting and temperature. The mice received an intra-peritoneal injection of 0.2 ml gonadotropins (containing 10 IU PMSG, pregnant mare serum gonadotropin, Sigma Cat. No. G-4877) and 48 hours later the animals were killed by cervical dislocation.
# Collection and Culture of Oocytes
# The ovaries were dissected out and the oocytes were isolated in Hx-medium (see below) under a stereo microscope by manual rupture of the follicles using a pair of 27 gauge needles. Spherical, cumulus enclosed oocytes (CEO) displaying an intact germinal vesicle (GV) were placed in α-minimum essential medium (α-MEM without ribonucleosides, Gibco BRL, Cat. No. 22561) supplemented with 3 mM hypoxanthine (Sigma Cat. No. H-9377), 8 mg/ml Human Serum Albumin (HSA, State Serum Institute, Denmark), 0,23 mM pyruvate (Sigma, Cat. No. S-8636), 2 mM glutamine (Flow Cat. No. 16-801), 100 IU/ml penicillin and 100 μg/ml streptomycin (Flow Cat No. 16-700). This medium was designated Hx-medium.
# The oocytes were rinsed three times in Hx-medium and cultured in 4-well multidishes (Nunclon, Denmark) in which each well contained 0.4 ml of Hx-medium and approx. 25 oocytes. One control (i.e. approx. 25 oocytes cultured in Hx-medium with no addition of test compound) was always run simultaneously with the test cultures, which were made with different concentrations of the compounds to be tested. The cultures were performed at 37° C. and 100% humidity with 5% CO2 in air. The culture time was 22 hours.
# Oocytes arrested in meiosis are characterized by an intact nucleus with a prominent nucleolus, known as germinal vesicle (GV). Upon reinitiation of meiosis the nucleolus and the nuclear envelope disappear and this is characterized by a breakdown of the GV, which than is called germinal vesicle breakdown (GVB). Some hours later the oocyte complete a reductional division and elicit the first so called polar body (PB).
# By the end of the culture period, the number of oocytes with germinal vesicle (GV) or germinal vesicle breakdown (GVB) and those with polar body (PB) was counted using a stereo microscope or an inverted microscope with differential interference contrast equipment. The percentage of oocytes with GVB per total number of oocytes and the percentage of oocytes with PB per total number of oocytes was calculated in the test cultures and compared to the control culture.
# [2] = system: mouse preantral follicles; experiment: Mouse follicular culture system: activation of oocyte maturation; type: cell-based; settings: for Activation [%] GVB / Follicles [n] GV / Follicles [n] GVB: added day 2 and 3, read at day 4
# Procedure: Testing of Meiosis-Activating Substances in the Mouse Follicular Culture System
# Follicles were obtained from 19-21 day-old immature female mice (C57BI/6J×CBA/J), that were kept under controlled lighting and temperature.
# Collection of Serum and Culture of Follicles
# Animals were anesthetized with ether, and blood was collected by means of eye extraction. After clotting, blood was centrifuged for 15 min at 4000×g, and serum was collected and stored at −20° C. until use. Ovaries were removed and placed in Leibovitz L-15 medium (Gibco Cat. No. 41300) supplemented with 1 mmol glutamine l^−1, 3 mg BSA ml^−1, 5 μg human transferrin ml^−1 (without iron), 5 μg insulin ml^−1 (culture-grade chemicals, Sigma, St. Louis, Mo.) at 37 °C.
# Preantral follicles with a diameter of 170-190 μm were isolated mechanically with two 27-gauge needles attached to 1 ml syringe. They were placed and washed thereafter (3 times) in 4-well culture plates (Nunclon, Denmark) in α-minimum essential medium (α-MEM; Gibco Cat. No. 11900) supplemented with 2 mmol glutamine l^−1, 10 μg transferrin ml^−1 and 10 μg insulin ml and with 3 mg BSA ml^−1.
# Follicles of 170-190 μm with normal morphological appearence, i.e. a central spherical oocyte, high density of granulosa cells, and a theca layer enclosing the entire follicle, were selected and individually cultured in 96-well culture plate (Nunclon, Denmark) inserts with 40 μl α-MEM culture medium supplemented with 50 μl immature mouse serum ml^−1, 5 μg insulin ml^−1, 2 mmol glutamine l^−1, 10 μg human transferrin ml^−1 and 0.2 IU FSH (Gonal F, Serono, Solna, Sweden). Without any oil cover follicles were cultured in a humidified incubator gassed with 5% CO2 in air at 37° C.
# Start of culture was defined as day 0. Culture medium was exchanged every other day. The diameter of the follicles was measured each day using ×100 magnification and a calibrated micrometer. In addition, the survival rate of the follicles was checked by evaluation of degeneration (darkening of the follicle) and bursting (loss of the oocyte). The culture time was 4 days.
# At day 2 and day 3 of culture test compound or vehicle at a volume of 1.72 μl was added to the culture medium. Test compounds were dissolved in ethanol (vehicle).
# Oocytes arrested in meiosis are characterized by an intact nucleus with a prominent nucleolus, known as germinal vesicle (GV). Upon reinitiation of meiosis the nucleolus and the nuclear envelope disappear and this is characterized by a breakdown of the GV, which then is called germinal vesicle breakdown (GVB).
# At day 4, by the end of the culture period, follicles were checked for resumption of meiosis. The number of follicles having oocytes with germinal vesicle (GV) or germinal vesicle breakdown (GVB) was counted using a stereo microscope or an inverted microscope with differential interference contrast equipment. The percentage of follicles with GVB per total number of follicles was calculated in the test cultures and compared to the vehicle control culture.
# [3] = system: rat oocytes; settings: micromolar concentrations; rat CEO and DO arrested by IBMX; cited from earlier work
compound,measurement,setting,value
"C[C@H](CN1CCCCC1)[C@H]1CC=C2C3=C(CC[C@@]21C)[C@@]1(C)CC[C@H](O)C(C)(C)[C@@H]1CC3 [Example 1, (20S)-20-[(piperidin-1-yl)methyl]-4,4-dimethyl-5α-pregna-8,14-dien-3β-ol]",Activation [%] GVB + PB,"[1]; 0,1 μM",39%
same,Oocytes [n] GV,"[1]; 0,1 μM",14 n
same,Oocytes [n] GVB,"[1]; 0,1 μM",7 n
same,Oocytes [n] PB,"[1]; 0,1 μM",2 n
same,Activation [%] GVB + PB,[1]; 1 μM,75%
same,Oocytes [n] GV,[1]; 1 μM,6 n
same,Oocytes [n] GVB,[1]; 1 μM,12 n
same,Oocytes [n] PB,[1]; 1 μM,6 n
same,Activation [%] GVB + PB,[1]; 10 μM,95%
same,Oocytes [n] GV,[1]; 10 μM,1 n
same,Oocytes [n] GVB,[1]; 10 μM,14 n
same,Oocytes [n] PB,[1]; 10 μM,7 n
same,Activation [%] GVB,[2]; 1 μM,78%
same,Follicles [n] GV,[2]; 1 μM,2 n
same,Follicles [n] GVB,[2]; 1 μM,7 n
same,Activation [%] GVB,[2]; 3 μM,100%
same,Follicles [n] GV,[2]; 3 μM,0 n
same,Follicles [n] GVB,[2]; 3 μM,9 n
same,Activation [%] GVB,[2]; 10 μM,100%
same,Follicles [n] GV,[2]; 10 μM,0 n
same,Follicles [n] GVB,[2]; 10 μM,8 n
"CC(C)=CCC[C@@H](C)[C@H]1CC=C2C3=C(CC[C@@]21C)[C@@]1(C)CC[C@H](O)C(C)(C)[C@@H]1CC3 [FF-MAS, 4,4-dimethyl-5α-cholesta-8,14,24-trien-3β-ol, reference compound]",Activation [%] GVB + PB,[1]; 10 μM,46%
same,Oocytes [n] GV,[1]; 10 μM,13 n
same,Oocytes [n] GVB,[1]; 10 μM,6 n
same,Oocytes [n] PB,[1]; 10 μM,5 n
same,Activation [%] GVB,[2]; 10 μM,0%
same,Follicles [n] GV,[2]; 10 μM,9 n
same,Follicles [n] GVB,[2]; 10 μM,0 n
same,induction of maturation / activation of meiosis in a follicle culture system,[2]; follicle culture system,not able to induce maturation
same,resumption of meiosis,[3],able to induce resumption of meiosis in a dose-dependent manner
